In US20140135310A1, “SULPHONAMIDE DERIVATIVES OF ALICYCLIC AMINES FOR THE TREATMENT OF CENTRAL NERVOUS SYSTEM DISEASES” (Adamed Sp. z o.o., priority 2011, published 2014):

Experiments:
[1] = biological target: T1, 5-HT1A receptor (rat hippocampus) (Rattus norvegicus, UniProt P19327); test: Radioligand binding assay, serotoninergic 5-HT1A receptors; settings: binding assay result in %, Table 5a;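 further: test compound at 1 µM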
T1 construct: hippocampus; from tissue; host or cells: rat hippocampus
T1 sequence (P19327 1-422): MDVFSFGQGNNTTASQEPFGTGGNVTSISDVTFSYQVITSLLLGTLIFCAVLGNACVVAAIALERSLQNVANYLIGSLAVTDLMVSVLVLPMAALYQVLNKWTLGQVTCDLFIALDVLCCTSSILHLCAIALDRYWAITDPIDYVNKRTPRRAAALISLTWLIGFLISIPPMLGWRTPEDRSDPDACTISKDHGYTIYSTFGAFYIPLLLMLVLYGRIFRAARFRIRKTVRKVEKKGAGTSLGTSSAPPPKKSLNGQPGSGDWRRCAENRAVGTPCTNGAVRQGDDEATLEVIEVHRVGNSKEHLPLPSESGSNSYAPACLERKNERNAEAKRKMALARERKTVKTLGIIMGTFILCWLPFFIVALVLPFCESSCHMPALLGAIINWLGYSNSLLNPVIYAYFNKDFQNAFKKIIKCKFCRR

5-HT2A receptor = biological target: T2, 5-HT2A receptor (Homo sapiens, UniProt P28223); test: Radioligand binding assay, serotoninergic 5-HT2A receptors; settings: binding assay result in %, Table 5a
T2 construct: purchased PerkinElmer
Procedure, shortened: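 Competition curves from scintillation-counted specific binding (total minus binding with excess unlabelled ligand) were Hill-fitted to give IC50, converted to Ki via Cheng-Prusoff using Scatchard-derived Kd.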

[2] = biological target: dopaminergic receptors D3 (Homo sapiens, UniProt P35462); test: Radioligand binding assay, dopaminergic D3 receptors; settings: test compound 1×10^−6 M
Procedure, shortened: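 Scintillation read-out. Specific = total − nonspecific (excess cold ligand). Data as % of control specific binding / % inhibition; IC50 by Hill fit; Ki = IC50/(1+L/KD), KD from Scatchard plot.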

5-HT7 receptor = biological target: T3, 5-HT7 receptor (Homo sapiens, UniProt P34969); test: Radioligand binding assay, serotoninergic 5-HT7 receptors; settings: binding assay result in %, Table 5a;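 further: test compound at 1 µM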
T3 construct: purchased PerkinElmer
Procedure, shortened: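 Ki values used the Cheng–Prusoff equation, with KD from Scatchard analysis, applied to IC50 from Hill fits of human 5-HT7 radioligand competition curves. Bound radioligand was counted by scintillation, and excess unlabelled ligand set the non-specific binding.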

[3] = biological target: dopaminergic receptors D2 (Homo sapiens, UniProt P14416); test: Radioligand binding assay, dopaminergic D2 receptors; settings: binding assay, test compound 1×10^−6 M
Procedure, shortened: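 Displacement of radioligand from human dopamine D2, D3 or D4.4 receptors, counted by scintillation; specific binding is total minus binding under excess unlabelled ligand. IC50 values come from Hill curve fits of percent inhibition, then converted to Ki by Cheng-Prusoff using Scatchard-derived KD.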

[4] = test system: α1 adrenergic receptors (rat cerebral cortex); test: Radioligand binding assay, adrenergic α1 receptors; settings: test compound 1×10^−6 M
Procedure, shortened: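 Values derive from radioligand displacement, with non-specific binding defined by excess cold ligand and detection by scintillation. Hill-fit IC50s were converted to Ki via Cheng-Prusoff using Scatchard-derived Kd; percent inhibition of control specific binding also reported.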

5-HT6 receptor = biological target: T4, 5-HT6 receptor (Homo sapiens, UniProt P50406); test: Radioligand binding assay, serotoninergic 5-HT6 receptors; settings: binding assay result in %, Table 5a;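 further: test compound at 1 µM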
T4 construct: purchased PerkinElmer
Procedure, shortened: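 Values are Ki from Cheng–Prusoff, taking IC50 from Hill nonlinear regression of competition curves and KD from a Scatchard plot. Specific binding was total minus binding with excess unlabelled ligand. Radioligand displacement was detected by scintillation counting, and data were also reported as percent of control specific binding.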

[5] = biological target: T5, serotonin transporter (SERT) (Homo sapiens, UniProt P31645); test: Radioligand binding assay, serotonin transporter (SERT); settings: binding assay, test compound 1×10^−6 M
T5 construct: expressed in transfected cells; host or cells: CHO cells
Procedure, shortened: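 Values are derived from competition curves fitted by the Hill equation to give IC50, then converted to Ki by Cheng-Prusoff with radioligand Kd from Scatchard analysis. Specific binding equals total minus non-specific (excess cold ligand), counted by scintillation, and is also expressed as percent inhibition of control.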

T5 sequence (P31645 whole entry): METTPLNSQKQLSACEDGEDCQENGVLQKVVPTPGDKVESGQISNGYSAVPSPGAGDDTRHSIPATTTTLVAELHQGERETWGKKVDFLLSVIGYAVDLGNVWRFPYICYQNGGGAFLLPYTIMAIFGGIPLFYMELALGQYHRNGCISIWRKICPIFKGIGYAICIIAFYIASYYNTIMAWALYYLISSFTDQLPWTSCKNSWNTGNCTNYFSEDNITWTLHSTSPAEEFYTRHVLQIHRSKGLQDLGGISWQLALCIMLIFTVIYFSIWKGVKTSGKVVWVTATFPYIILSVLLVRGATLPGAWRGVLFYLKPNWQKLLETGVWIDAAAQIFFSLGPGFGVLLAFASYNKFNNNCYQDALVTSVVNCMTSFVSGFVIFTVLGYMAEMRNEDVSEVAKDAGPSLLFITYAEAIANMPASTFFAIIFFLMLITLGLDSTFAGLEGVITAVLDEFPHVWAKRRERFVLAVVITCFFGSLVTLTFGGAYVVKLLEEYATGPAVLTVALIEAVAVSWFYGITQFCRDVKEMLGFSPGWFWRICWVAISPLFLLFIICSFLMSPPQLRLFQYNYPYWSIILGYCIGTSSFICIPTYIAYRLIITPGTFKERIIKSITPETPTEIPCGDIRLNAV
T2 sequence (P28223 whole entry): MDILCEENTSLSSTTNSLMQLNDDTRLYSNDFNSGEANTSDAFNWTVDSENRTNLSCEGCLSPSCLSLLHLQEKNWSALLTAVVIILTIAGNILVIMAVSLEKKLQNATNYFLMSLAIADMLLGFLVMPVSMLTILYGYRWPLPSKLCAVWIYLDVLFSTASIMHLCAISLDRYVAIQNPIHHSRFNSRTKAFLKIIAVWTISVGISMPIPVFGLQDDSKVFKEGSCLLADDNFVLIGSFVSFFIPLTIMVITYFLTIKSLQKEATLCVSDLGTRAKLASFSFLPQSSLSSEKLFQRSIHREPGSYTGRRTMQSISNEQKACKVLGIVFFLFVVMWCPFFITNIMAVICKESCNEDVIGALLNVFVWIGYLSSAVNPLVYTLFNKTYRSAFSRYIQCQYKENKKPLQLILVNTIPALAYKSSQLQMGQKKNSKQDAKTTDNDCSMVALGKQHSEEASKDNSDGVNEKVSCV
T4 sequence (P50406 whole entry): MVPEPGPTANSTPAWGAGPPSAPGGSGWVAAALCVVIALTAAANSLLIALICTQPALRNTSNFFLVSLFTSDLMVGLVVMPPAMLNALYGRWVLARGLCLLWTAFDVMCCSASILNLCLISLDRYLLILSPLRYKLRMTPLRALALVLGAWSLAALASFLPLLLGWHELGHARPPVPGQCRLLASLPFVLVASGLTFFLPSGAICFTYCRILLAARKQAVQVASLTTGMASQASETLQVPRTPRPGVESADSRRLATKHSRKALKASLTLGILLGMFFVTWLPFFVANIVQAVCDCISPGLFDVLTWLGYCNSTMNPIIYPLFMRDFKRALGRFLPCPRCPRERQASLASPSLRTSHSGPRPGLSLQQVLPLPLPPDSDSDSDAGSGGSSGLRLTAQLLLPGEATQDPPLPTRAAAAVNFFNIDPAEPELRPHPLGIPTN
T3 sequence (P34969 whole entry): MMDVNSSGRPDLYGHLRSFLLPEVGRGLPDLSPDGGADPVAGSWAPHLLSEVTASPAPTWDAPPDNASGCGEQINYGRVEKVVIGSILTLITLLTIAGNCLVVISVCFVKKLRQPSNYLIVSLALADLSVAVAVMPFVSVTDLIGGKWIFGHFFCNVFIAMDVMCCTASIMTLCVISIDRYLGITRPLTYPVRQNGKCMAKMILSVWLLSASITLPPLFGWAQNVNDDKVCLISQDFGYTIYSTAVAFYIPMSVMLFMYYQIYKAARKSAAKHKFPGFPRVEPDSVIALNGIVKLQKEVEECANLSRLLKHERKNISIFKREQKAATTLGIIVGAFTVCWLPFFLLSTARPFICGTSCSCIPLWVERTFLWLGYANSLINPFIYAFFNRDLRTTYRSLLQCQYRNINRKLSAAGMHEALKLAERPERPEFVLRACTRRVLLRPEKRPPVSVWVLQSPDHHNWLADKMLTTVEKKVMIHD
Chain of dopaminergic receptors D2 (P14416 whole entry): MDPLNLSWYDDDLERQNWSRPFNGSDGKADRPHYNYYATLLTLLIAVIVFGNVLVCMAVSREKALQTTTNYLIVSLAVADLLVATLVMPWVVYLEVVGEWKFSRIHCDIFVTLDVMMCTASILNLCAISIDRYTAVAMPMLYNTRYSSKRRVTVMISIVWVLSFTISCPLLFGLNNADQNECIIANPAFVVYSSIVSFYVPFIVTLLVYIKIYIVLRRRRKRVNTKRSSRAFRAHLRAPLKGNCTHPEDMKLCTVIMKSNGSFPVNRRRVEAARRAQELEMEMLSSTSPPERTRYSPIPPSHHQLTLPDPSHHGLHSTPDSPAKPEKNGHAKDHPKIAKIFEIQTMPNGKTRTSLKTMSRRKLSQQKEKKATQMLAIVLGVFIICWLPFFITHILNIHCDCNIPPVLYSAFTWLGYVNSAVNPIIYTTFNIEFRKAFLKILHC
Chain of dopaminergic receptors D3 (P35462 whole entry): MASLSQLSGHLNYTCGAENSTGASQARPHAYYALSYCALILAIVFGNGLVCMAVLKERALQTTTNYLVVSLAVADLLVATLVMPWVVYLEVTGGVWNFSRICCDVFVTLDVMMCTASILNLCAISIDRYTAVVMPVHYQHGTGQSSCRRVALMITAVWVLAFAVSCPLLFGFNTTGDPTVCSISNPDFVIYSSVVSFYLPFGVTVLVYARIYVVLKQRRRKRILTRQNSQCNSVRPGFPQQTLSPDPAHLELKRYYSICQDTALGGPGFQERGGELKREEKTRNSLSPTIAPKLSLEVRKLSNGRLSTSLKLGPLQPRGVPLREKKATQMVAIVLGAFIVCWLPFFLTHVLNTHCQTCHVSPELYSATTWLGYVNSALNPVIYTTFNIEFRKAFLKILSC

| SMILES | inhibition at 1 µM [1] | inhibition at 1 µM (5-HT2A receptor) | inhibition at 1 µM [2] | inhibition at 1 µM (5-HT7 receptor) | inhibition at 1 µM [3] | α1 [%] [4] | inhibition at 1 µM (5-HT6 receptor) | inhibition at 1 µM [5] | 5-HT1A [%] [1] | 5-HT2A [%] (5-HT2A receptor) | D3 [%] [2] | 5-HT7 [%] (5-HT7 receptor) | D2 [%] [3] | 5-HT6 [%] (5-HT6 receptor) | SERT [%] [5] |
| --- | --- | --- | --- | --- | --- | --- | --- | --- | --- | --- | --- | --- | --- | --- | --- |
| O=S(=O)(NCC1CN(CCOc2cccc3c2OCCO3)C1)c1ccc(C(F)(F)F)cc1 [Compound 180, N-[[1-[2-(2,3-Dihydro-1,4-benzodioxin-5-yloxy)ethyl]azetidin-3-yl]methyl]-4-(trifluoromethyl)benzenesulphonamide] | 93% | 68% | 46% | 94% | 23% | 39% | 31% | 14% |  |  |  |  |  |  |  |
| Cc1cccc(S(=O)(=O)NC2CCN(CCOc3cccc4c3OCCO4)CC2)c1 [Compound 118, N-[1-[2-(2,3-Dihydro-1,4-benzodioxan-8-yloxy)ethyl]-4-piperidine]-3-methyl-benzenesulphonamide] |  |  |  |  |  | 72% |  |  | 85% | 83% | 20% | 99% | 32% | 51% | 41% |
| CC1(C)Cc2cccc(OCCN3CCC(CNS(=O)(=O)c4cccc(O)c4)C3)c2O1 (stereo not shown) [Compound 113, N-[[1-[2-[(2,2-Dimethyl-3H-benzofuran-7-yl)oxy]ethyl]pyrrolidin-3-yl]methyl]-3-hydroxy-benzenesulphonamide] | 81% | 65% | 55% | 85% | 47% | 55% | 52% | 18% |  |  |  |  |  |  |  |
| O=S(=O)(NC1CCN(CCOc2cccc3c2OCCO3)CC1)c1cccc2ccccc12 [Compound 100, N-[1-[2-(2,3-dihydro-1,4-benzodioxan-8-yloxy)ethyl]-4-piperidine]-naphthalene-1-sulphonamide] |  |  |  |  |  | 87% |  |  | 94% | 97% | 74% | 103% | 41% | 28% | 57% |
| O=S(=O)(NCC1CCN(CCOc2cccc3ccccc23)C1)c1ccc2cc(Cl)ccc2c1 (stereo not shown) [Compound 270, 6-Chloro-N-[[1-[2-(1-naphthyloxy)ethyl]pyrrolidin-3-yl]methyl]naphthalene-2-sulphonamide] | 47% | 86% | 91% | 94% | 32% | −5% | 86% | 15% |  |  |  |  |  |  |  |
